Assay results reported in patent US10550105B2 (Ribon Therapeutics Inc., priority 2018, dated 2020).

molecular target: PARP7 (Homo sapiens (Human), UniProt Q7Z3E1); assay: Enzymatic assay for inhibition of PARP7: TR-FRET displacement of biotinylated Probe A from the TIPARP active site; type: binding; conditions: Table A-1
Method in brief: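 TR-FRET, ex 320 nm / em 615 and 665 nm. Signal ratio reflects complex formation.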

Sequence of PARP7 (Q7Z3E1 whole entry): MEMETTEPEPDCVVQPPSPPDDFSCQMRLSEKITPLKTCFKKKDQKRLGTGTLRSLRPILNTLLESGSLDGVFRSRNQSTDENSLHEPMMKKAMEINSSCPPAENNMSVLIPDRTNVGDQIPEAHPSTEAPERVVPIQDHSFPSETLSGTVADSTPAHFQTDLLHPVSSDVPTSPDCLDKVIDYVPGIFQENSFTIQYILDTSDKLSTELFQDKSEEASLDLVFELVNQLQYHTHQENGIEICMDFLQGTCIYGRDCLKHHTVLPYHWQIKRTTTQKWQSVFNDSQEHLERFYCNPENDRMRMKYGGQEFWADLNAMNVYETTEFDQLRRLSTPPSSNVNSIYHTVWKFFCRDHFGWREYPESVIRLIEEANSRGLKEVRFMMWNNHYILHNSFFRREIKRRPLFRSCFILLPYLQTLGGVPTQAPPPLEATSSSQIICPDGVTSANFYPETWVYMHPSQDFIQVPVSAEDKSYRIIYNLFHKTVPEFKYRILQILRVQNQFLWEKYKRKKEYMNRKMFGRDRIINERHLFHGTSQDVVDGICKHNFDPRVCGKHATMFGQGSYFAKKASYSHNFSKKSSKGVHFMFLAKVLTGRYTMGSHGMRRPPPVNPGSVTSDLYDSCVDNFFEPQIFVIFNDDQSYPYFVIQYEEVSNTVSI

Row | Structure (SMILES) | IC50 [nM]
1 | O=C(C[C@H]1CC[C@H](CNc2cn[nH]c(=O)c2C(F)(F)F)O1)N1CCN(c2ncc(C(F)(F)F)cn2)CC1 (single isomer, unassigned) [Example 568 Isomer B] | < 100
2 | CC1c2ccccc2CN1c1cn[nH]c(=O)c1Cl (stereo not shown) [Example 208, 4-Chloro-5-(1-methylisoindolin-2-yl)pyridazin-3(2H)-one] | ≥ 1000
3 | N#Cc1ccc(N2CCN(C(=O)C[C@H]3CC[C@H](COc4cn[nH]c(=O)c4C(F)(F)F)O3)CC2)nc1 (single isomer, unassigned) [Example 580 Isomer B] | 100 to 1000
4 | O=C(CC1CCC(COc2cn[nH]c(=O)c2C(F)(F)F)N1)N1CCN(c2ncc(C(F)(F)F)cn2)CC1 (stereo not shown) [Example 642, 5-((5-(2-Oxo-2-(4-(5-(trifluoromethyl)pyrimidin-2-yl)piperazin-1-yl)ethyl)pyrrolidin-2-yl)methoxy)-4-(trifluoromethyl)pyridazin-3(2H)-one] | 100 to 1000
5 | N#Cc1ccc(N2CCC(NC(=O)CCOC[C@@H]3CCCN3c3cn[nH]c(=O)c3C(F)(F)F)CC2)nc1 [Example 115, N-[1-(5-cyanopyridin-2-yl)piperidin-4-yl]-3-[[(2S)-1-[6-oxo-5-(trifluoromethyl)-1,6-dihydropyridazin-4-yl]pyrrolidin-2-yl]methoxy]propanamide] | < 100
6 | O=C(CCOCCOc1cn[nH]c(=O)c1Cl)N1CCN(c2ncc(Cl)cn2)CC1 [Example 522, 4-Chloro-5-(2-[3-[4-(5-chloropyrimidin-2-yl)piperazin-1-yl]-3-oxopropoxy]ethoxy)-2,3-dihydropyridazin-3-one] | < 100
7 | C[C@@H](COCCC(=O)N1CCN(c2ncc(Cl)cn2)CC1)Oc1cn[nH]c(=O)c1Cl (single isomer, unassigned) [Example 577 Isomer A] | < 100
8 | O=c1[nH]ncc(N2Cc3ccc(CNc4ccncc4)cc3C2)c1C(F)(F)F [Example 17, 5-(5-[[(pyridin-4-yl)amino]methyl]-2,3-dihydro-1H-isoindol-2-yl)-4-(trifluoromethyl)-2,3-dihydropyridazin-3-one] | < 100
9 | N#Cc1ccc(N2CCN(C(=O)C[C@H]3CC[C@H]([C@@H]4CCCN4c4cn[nH]c(=O)c4C(F)(F)F)O3)CC2)nc1 [Example 141D, 6-(4-[2-[(2R,5R)-5-[(2S)-1-[6-oxo-5-(trifluoromethyl)-1,6-dihydropyridazin-4-yl]pyrrolidin-2-yl]oxolan-2-yl]acetyl]piperazin-1-yl)pyridine-3-carbonitrile] | 100 to 1000
10 | N#Cc1ccc(N2CCN(C(=O)C[C@@H]3CC[C@H](COc4cn[nH]c(=O)c4C(F)(F)F)O3)CC2)nc1 [Example 580 Isomer D, 6-(4-[2-[(2S,5R)-5-([[6-oxo-5-(trifluoromethyl)-1,6-dihydropyridazin-4-yl]oxy]methyl)oxolan-2-yl]acetyl]piperazin-1-yl)pyridine-3-carbonitrile] | < 100
11 | COC[C@@H](COCCC(=O)N1CCN(c2ncc(C(F)(F)F)cn2)CC1)Oc1cn[nH]c(=O)c1C(F)(F)F (single isomer, unassigned) [Example 570 Isomer A] | < 100
12 | O=c1[nH]ncc(N2Cc3ccc(O)cc3C2)c1C(F)(F)F [Example 219, 5-(5-Hydroxyisoindolin-2-yl)-4-(trifluoromethyl)pyridazin-3(2H)-one] | < 100
13 | CC[C@@H](COCCC(=O)N1CCN(c2ncc(C(F)(F)F)cn2)CC1)Oc1cn[nH]c(=O)c1C(F)(F)F [Example 37, 5-[[(2S)-1-(3-Oxo-3-[4-[5-(trifluoromethyl)pyrimidin-2-yl]piperazin-1-yl]propoxy)butan-2-yl]oxy]-4-(trifluoromethyl)-2,3-dihydropyridazin-3-one] | < 100
14 | CC(=O)N1CCC(Oc2cc3c(cn2)CN(c2cn[nH]c(=O)c2C(F)(F)F)C3)CC1 [Example 13] | < 100
15 | O=C(CCOC[C@H](Cc1ccncc1)Nc1cn[nH]c(=O)c1C(F)(F)F)N1CCN(c2ncc(C(F)(F)F)cn2)CC1 [Example 647, (S)-5-((1-(3-Oxo-3-(4-(5-(trifluoromethyl)pyrimidin-2-yl)piperazin-1-yl)propoxy)-3-(pyridin-4-yl)propan-2-yl)amino)-4-(trifluoromethyl)pyridazin-3(2H)-one] | < 100
16 | O=c1[nH]ncc(N2Cc3cc(F)c(OCC4CCNCC4)cc3C2)c1C(F)(F)F [Example 20, 5-[5-fluoro-6-(piperidin-4-ylmethoxy)-2,3-dihydro-1H-isoindol-2-yl]-4-(trifluoromethyl)-2,3-dihydropyridazin-3-one] | < 100
17 | CC[C@@H](COCCC(=O)N1CCN(c2ncc(C(F)(F)F)cn2)CC1)Oc1cn[nH]c(=O)c1Br [Example 657, (S)-4-Bromo-5-((1-(3-oxo-3-(4-(5-(trifluoromethyl)pyrimidin-2-yl)piperazin-1-yl)propoxy)butan-2-yl)oxy)pyridazin-3(2H)-one] | < 100
18 | O=c1[nH]ncc(N2Cc3cc(OC4CCNCC4)cc(F)c3C2)c1C(F)(F)F [Example 3, 5-[4-fluoro-6-(piperidin-4-yloxy)-2,3-dihydro-1H-isoindol-2-yl]-4-(trifluoromethyl)-2,3-dihydropyridazin-3-one; formic acid] | < 100
19 | C[C@@H](COCCC(=O)N1CCN(c2ncccc2C(F)(F)F)CC1)Nc1cn[nH]c(=O)c1C(F)(F)F [Example 677, (S)-5-((1-(3-Oxo-3-(4-(3-(trifluoromethyl)pyridin-2-yl)piperazin-1-yl)propoxy)propan-2-yl)amino)-4-(trifluoromethyl)pyridazin-3(2H)-one] | < 100
20 | N#Cc1ccc(N2CCN(C(=O)CCOCCOc3cn[nH]c(=O)c3C#N)CC2)nc1 [Example 554, 5-(2-[3-[4-(5-Cyanopyridin-2-yl)piperazin-1-yl]-3-oxopropoxy]ethoxy)-3-oxo-2,3-dihydropyridazine-4-carbonitrile] | < 100

Continued, values first:

Row | IC50 [nM] | Structure (SMILES)
21 | < 100 | NC(=O)c1cccc2c1CN(c1cn[nH]c(=O)c1C(F)(F)F)C2 [Example 269, 2-(6-Oxo-5-(trifluoromethyl)-1,6-dihydropyridazin-4-yl)isoindoline-4-carboxamide]
22 | < 100 | O=C(c1cccc(OCC2c3ccccc3CN2c2cn[nH]c(=O)c2C(F)(F)F)c1)N1CCn2ncnc2C1 (stereo not shown) [Example 398, 5-(1-((3-(5,6,7,8-Tetrahydro-[1,2,4]triazolo[1,5-a]pyrazine-7-carbonyl)phenoxy)methyl)isoindolin-2-yl)-4-(trifluoromethyl)pyridazin-3(2H)-one]
23 | < 100 | N#Cc1cnc(N2CCN(C(=O)c3cc(OCC4c5ccccc5CN4c4cn[nH]c(=O)c4C(F)(F)F)ccn3)CC2)nc1 (stereo not shown) [Example 380, 2-(4-(4-((2-(6-Oxo-5-(trifluoromethyl)-1,6-dihydropyridazin-4-yl)isoindolin-1-yl)methoxy)picolinoyl)piperazin-1-yl)pyrimidine-5-carbonitrile]
24 | < 100 | O=c1[nH]ncc(N2Cc3cccc(OC4CCN(CC(c5ccccc5)c5ccccc5)CC4)c3C2)c1C(F)(F)F [Example 347, 5-(4-((1-(2,2-Diphenylethyl)piperidin-4-yl)oxy)isoindolin-2-yl)-4-(trifluoromethyl)pyridazin-3(2H)-one]
25 | < 100 | N#Cc1ccc(N2CCN(C(=O)c3cccc(OCc4cccc5c4CN(c4cn[nH]c(=O)c4C(F)(F)F)C5)c3)CC2)nc1 [Example 488, 6-(4-(3-((2-(6-Oxo-5-(trifluoromethyl)-1,6-dihydropyridazin-4-yl)isoindolin-4-yl)methoxy)benzoyl)piperazin-1-yl)nicotinonitrile]
26 | < 100 | N#Cc1ccc(N2CCN(C(=O)/C=C/COC[C@@H]3CCCN3c3cn[nH]c(=O)c3C(F)(F)F)CC2)nc1 (single isomer, unassigned) [Example 96 Isomer B]
27 | < 100 | CC(=O)N1CCCC(COc2cc3c(cc2F)CN(c2cn[nH]c(=O)c2C(F)(F)F)C3)C1 (stereo not shown) [Example 45, 5-[5-[(1-acetylpiperidin-3-yl)methoxy]-6-fluoro-2,3-dihydro-1H-isoindol-2-yl]-4-(trifluoromethyl)-2,3-dihydropyridazin-3-one]
28 | < 100 | N#Cc1ccc(N2CCN(C(=O)c3cc(OC[C@@H]4CCCN4c4cn[nH]c(=O)c4C(F)(F)F)ccc3F)CC2)nc1 [Example 67, 6-[4-[(2-fluoro-5-[[(2S)-1-[6-oxo-5-(trifluoromethyl)-1,6-dihydropyridazin-4-yl]pyrrolidin-2-yl]methoxy]phenyl)carbonyl]piperazin-1-yl]pyridine-3-carbonitrile]
29 | 100 to 1000 | N#Cc1ccc(N2CCN(C(=O)c3cccc(OC[C@H]4c5ccccc5CN4c4cn[nH]c(=O)c4C(F)(F)F)c3)CC2)nc1 (single isomer, unassigned) [Example 18 Isomer A]
30 | 100 to 1000 | N#Cc1ccc(N2CCN(C(=O)c3ccc(OC[C@H]4c5ccccc5CN4c4cn[nH]c(=O)c4C(F)(F)F)cc3)CC2)nc1 (single isomer, unassigned) [Example 35 Isomer B]
31 | ≥ 1000 | O=C(c1cccc(OCC2c3ccccc3CN2c2cn[nH]c(=O)c2C(F)(F)F)c1)N1CCNCC1 (stereo not shown) [Example 363, 5-(1-((3-(Piperazine-1-carbonyl)phenoxy)methyl)isoindolin-2-yl)-4-(trifluoromethyl)pyridazin-3(2H)-one]
32 | 100 to 1000 | N#Cc1ccc(N2CCN(C(=O)CCO[C@H]3C[C@@H](CN)N(c4cn[nH]c(=O)c4C(F)(F)F)C3)CC2)nc1 [Example 487, 6-(4-(3-(((3S,5S)-5-(Aminomethyl)-1-(6-oxo-5-(trifluoromethyl)-1,6-dihydropyridazin-4-yl)pyrrolidin-3-yl)oxy)propanoyl)piperazin-1-yl)nicotinonitrile]
33 | 100 to 1000 | O=c1[nH]ncc(N2Cc3cccc(N4CCOCC4)c3C2)c1C(F)(F)F [Example 253, 5-(4-Morpholinoisoindolin-2-yl)-4-(trifluoromethyl)pyridazin-3(2H)-one]
34 | < 100 | CN(CCC(=O)N1CCN(c2ccc(C#N)cn2)CC1)C[C@@H]1c2ccccc2CN1c1cn[nH]c(=O)c1Cl [Example 429, (S)-6-(4-(3-(((2-(5-Chloro-6-oxo-1,6-dihydropyridazin-4-yl)isoindolin-1-yl)methyl)(methyl)amino)propanoyl)piperazin-1-yl)nicotinonitrile]
